# From patent publication US20090175969A1, “Formulation for treating obesity and associated metabolic syndrome” (priority 2004, published 2009)
# Legend:
# [1] = tested on: lipase; details: human, three capsules of 120 mg daily; cited from earlier work
# [2] = target: T1, pancreatic lipase (Homo sapiens, UniProt P16233); test: in vitro effect on the activity of pancreatic lipase; format: biochemical; details: concentration of 10 mg, after 45 and 60 minutes, 37° C.
# T1 sequence (P16233 17-465): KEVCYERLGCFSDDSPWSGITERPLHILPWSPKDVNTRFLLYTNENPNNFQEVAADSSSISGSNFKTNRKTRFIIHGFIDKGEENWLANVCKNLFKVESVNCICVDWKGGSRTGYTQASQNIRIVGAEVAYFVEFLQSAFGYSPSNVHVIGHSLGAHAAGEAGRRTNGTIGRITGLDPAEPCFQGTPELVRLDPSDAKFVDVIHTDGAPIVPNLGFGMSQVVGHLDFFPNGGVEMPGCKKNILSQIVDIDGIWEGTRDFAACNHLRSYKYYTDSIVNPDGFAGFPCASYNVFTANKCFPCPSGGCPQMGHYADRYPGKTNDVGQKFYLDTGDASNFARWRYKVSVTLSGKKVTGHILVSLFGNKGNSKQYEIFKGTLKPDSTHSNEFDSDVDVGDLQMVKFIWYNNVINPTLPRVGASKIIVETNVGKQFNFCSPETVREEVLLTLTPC
# From the text: The composition of the formulation of the invention is presented below in the Table 1: […]
smiles,measurement,setting,value
"CCCCCCCCCCC[C@@H](C[C@@H]1OC(=O)[C@H]1CCCCCC)OC(=O)[C@H](CC(C)C)NC=O (relative stereo) [Xenical®, ([2S-[2a(R*),3b]]N-formyl-L-leucine 1-[(3-hexyl-4-oxo-2-oxetanyl)methyl]dodecyl ester)]",consumed fat that goes through the digestive tract without decomposition and is not absorbed,[1],30%
same,inhibition of lipase activity,[2],complete inhibition
